Results from the NIST ThermoML archive (doi:10.1016/j.fluid.2018.05.028).

Experiment: xn = mol fraction of the nth substance listed
Conditions: 101 kPa, Liquid; for viscosity: Concentric cylinders viscometry; for speed of sound: Single path-length method; for mass density: Vibrating tube method

CCCCCCCC/C=C\CCCCCCCC(=O)OCC [ethyl (Z)-9-octadeceneoate] + CCCO
Conditions | mass density [kg/m3] | speed of sound [m/s] | viscosity [mPa·s]
293.15 K, x2 = 0 | 868.91 | 1394.2 | 6.413
293.15 K, x2 = 0.1 | 867.29 | 1389.8 | 6.028
293.15 K, x2 = 0.2 | 865.42 | 1384.1 | 5.695
293.15 K, x2 = 0.3 | 863.2 | 1377.6 | 5.368
293.15 K, x2 = 0.4 | 860.5 | 1370 | 5.016
293.15 K, x2 = 0.5 | 857.13 | 1360.7 | 4.643
293.15 K, x2 = 0.6 | 852.82 | 1349.2 | 4.238
293.15 K, x2 = 0.7 | 846.96 | 1333.8 | 3.8
293.15 K, x2 = 0.8 | 838.72 | 1312.4 | 3.299
293.15 K, x2 = 0.9 | 826.05 | 1279 | 2.748
298.15 K, x2 = 0 | 865.27 | 1376.2 | 5.653
298.15 K, x2 = 0.1 | 863.62 | 1371.8 | 5.318
298.15 K, x2 = 0.2 | 861.71 | 1366.1 | 5.028
298.15 K, x2 = 0.3 | 859.46 | 1359.7 | 4.736
298.15 K, x2 = 0.4 | 856.73 | 1352 | 4.427
298.15 K, x2 = 0.5 | 853.33 | 1342.7 | 4.102
298.15 K, x2 = 0.6 | 848.98 | 1331.2 | 3.742
298.15 K, x2 = 0.7 | 843.08 | 1315.9 | 3.357
298.15 K, x2 = 0.8 | 834.8 | 1294.6 | 2.93
298.15 K, x2 = 0.9 | 822.08 | 1261.3 | 2.455
303.15 K, x2 = 0 | 861.63 | 1358.4 | 4.986
303.15 K, x2 = 0.1 | 859.95 | 1353.9 | 4.693
303.15 K, x2 = 0.2 | 858.01 | 1348.3 | 4.435
303.15 K, x2 = 0.3 | 855.72 | 1341.8 | 4.183
303.15 K, x2 = 0.4 | 852.96 | 1334.2 | 3.915
303.15 K, x2 = 0.5 | 849.52 | 1324.8 | 3.629
303.15 K, x2 = 0.6 | 845.14 | 1313.4 | 3.312
303.15 K, x2 = 0.7 | 839.19 | 1298.1 | 2.98
303.15 K, x2 = 0.8 | 830.87 | 1276.9 | 2.603
303.15 K, x2 = 0.9 | 818.09 | 1243.8 | 2.186
308.15 K, x2 = 0 | 858.01 | 1340.8 | 4.424
308.15 K, x2 = 0.1 | 856.28 | 1336.3 | 4.167
308.15 K, x2 = 0.2 | 854.3 | 1330.6 | 3.94
308.15 K, x2 = 0.3 | 851.98 | 1324.2 | 3.719
308.15 K, x2 = 0.4 | 849.18 | 1316.5 | 3.482
308.15 K, x2 = 0.5 | 845.71 | 1307.2 | 3.23
308.15 K, x2 = 0.6 | 841.28 | 1295.7 | 2.956
308.15 K, x2 = 0.7 | 835.29 | 1280.4 | 2.657
308.15 K, x2 = 0.8 | 826.92 | 1259.4 | 2.324
308.15 K, x2 = 0.9 | 814.08 | 1226.5 | 1.955
313.15 K, x2 = 0 | 854.39 | 1323.3 | 3.919
313.15 K, x2 = 0.1 | 852.62 | 1318.8 | 3.697
313.15 K, x2 = 0.2 | 850.61 | 1313.1 | 3.497
313.15 K, x2 = 0.3 | 848.24 | 1306.6 | 3.305
313.15 K, x2 = 0.4 | 845.4 | 1299 | 3.1
313.15 K, x2 = 0.5 | 841.89 | 1289.6 | 2.882
313.15 K, x2 = 0.6 | 837.41 | 1278.2 | 2.645
313.15 K, x2 = 0.7 | 831.37 | 1262.9 | 2.384
313.15 K, x2 = 0.8 | 822.94 | 1241.9 | 2.09
313.15 K, x2 = 0.9 | 810.04 | 1209.2 | 1.76
318.15 K, x2 = 0 | – | 1306 | 3.554
318.15 K, x2 = 0.1 | – | 1301.4 | 3.354
318.15 K, x2 = 0.2 | – | 1295.7 | 3.171
318.15 K, x2 = 0.3 | – | 1289.2 | 2.996
318.15 K, x2 = 0.4 | – | 1281.6 | 2.808
318.15 K, x2 = 0.5 | – | – | 2.606
318.15 K, x2 = 0.6 | – | – | 2.388
318.15 K, x2 = 0.7 | – | – | 2.147
318.15 K, x2 = 0.8 | – | – | 1.882
318.15 K, x2 = 0.9 | – | – | 1.584
